Laboratory results as given in patent US20220362330A1, “Compositions and Methods for Increasing Epithelial Barrier Function” (The Board of Trustees of the Leland Stanford Junior …, priority 2019, published 2022).

System: genital mucosal barrier
Experiment: Murine tissue permeability assay, low molecular weight fluorescent molecules given intravaginally
Assay type: in vivo, mice
Procedure: Effects of progestins on genital mucosal barrier permeability were evaluated by intravaginally (ivag) administering 457 Da and 70 KDa-sized fluorescent molecules to mice in estrus or diestrus-stage or after DMPA or LNG treatment. Mice were grouped as follows: untreated in estrus, untreated in diestrus, DMPA treated, or LNG treated. The mice were intravaginally administered a PBS solution containing Lucifer yellow (457 Da) and Texas-Red-conjugated dextran (70 KDa). Animals were euthanized 45 minutes later to assess vaginal tissue penetration of these molecules by confocal microscopy. […] Mucosal permeability was increased moderately by diestrus, but dramatically by DMPA or LNG. Conversely, permeability increases were negligible in estrus-stage mice and mice treated with MePRDL or DMPA and RU486. This indicates exogenous progestins increase genital mucosal permeability.
To evaluate mucosal permeability to low molecular weight molecules, indicated groups of mice were sedated, and 10 μL of a PBS solution containing 62.5 μg of dextran Texas-Red® (DR) (MW=70,000 Da) and 50 μg of Lucifer yellow CH, lithium salt (LY) (MW=457.2 Da) (both from Life Technologies) administered intravaginally. 45 minutes later, mice were euthanized, and excised vaginal tissue fixed in formaldehyde. Fixed tissue was embedded in agarose, and 200-300 μm specimens were sectioned with a vibratome. After counterstaining with 4,6-diamidino-2-phenylindole (DAPI), confocal microscopy images were acquired by sequential scanning to prevent fluorescence crossover.

How did the “penetration of the 457 Da molecules into vaginal tissue” value (confocal images, 45 minutes after ivag administration) turn out when `CC(=O)O[C@]1(C(C)=O)CC[C@H]2[C@@H]3C[C@H](C)C4=CC(=O)CC[C@]4(C)[C@H]3CC[C@@]21C` [DMPA] was run?
Its value is “greatest penetration”.

What about the Mucosal permeability increase (mice, ivag Lucifer yellow (457 Da) and Texas-Red dextran (70 KDa), 45 minutes, confocal microscopy) of the same compound?
The Mucosal permeability increase was “dramatically”.
